Measurements published in patent publication US10508085B2, “Compounds and methods for IDO and TDO modulation, and indications therefor” (Plexxikon Inc., priority 2016, dated 2019).
Read-outs that look alike come from different tables or passages of the source.

How the values were obtained:
[1] = target: T1, Human Indoleamine 2,3-dioxygenase (IDO) (Homo sapiens, UniProt P14902); test: Human IDO enzymatic assay (kynurenine level); type: biochemical; conditions: 6 nM IDO, 10 μM L-Trp; geometric mean; read-out: IDO1 GMean: IC50 (μM) (Biochemical Assay)
T1 construct: His tag (N); made in house; host or cells: E. coli
In short: (§1)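 N-His human IDO (6 nM, 10 μM L-Trp, 5 μM methylene blue, 20 min) or TDO (1 nM, 350 μM L-Trp, 0.4 μM methylene blue, 70 min) run at room temp in pH 6.5 phosphate with ascorbate, catalase, Tween 20. TCA stop, 30 min 50 °C converts N-formylkynurenine to kynurenine; IC50 by nonlinear regression.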

[2] = target: T2, human TDO (TDO-expressing HEK293 cells) (Homo sapiens, UniProt P48775); test: Cell based kynurenine assay, TDO-expressing HEK293 cell clones; conditions: TDO-expressing HEK293 cells, geometric mean, read-out: HEK293 TDO Kynurenine GMean IC50 (μM) (Cellular Assay)
T2 construct: expressed in transfected cells
In short: (§2)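 Cellular IDO1 and TDO activity is followed as kynurenine released by stably transfected HEK293 clones over 24 h with test compound. Controls are DMSO-treated cells and media alone.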

[3] = target: T3, human IDO (IDO1-expressing HEK293 cells) (Homo sapiens, UniProt P14902); test: Cell based kynurenine assay, IDO1-expressing HEK293 cell clones; conditions: IDO1-expressing HEK293 cells, geometric mean, read-out: HEK293 IDO1 Kynurenine GMean IC50 (μM) (Cellular Assay)
T3 construct: expressed in transfected cells
In short: as §2

[4] = target: T4, Human Tryptophan 2,3-dioxygenase (TDO) (Homo sapiens, UniProt P48775); test: Human TDO enzymatic assay (kynurenine level); type: biochemical; conditions: 1 nM TDO, 350 μM L-Trp; geometric mean; read-out: TDO GMean: IC50 (μM) (Biochemical Assay)
T4 construct: His tag (N); made in house; host or cells: E. coli
In short: as §1

T3 sequence (P14902 whole entry): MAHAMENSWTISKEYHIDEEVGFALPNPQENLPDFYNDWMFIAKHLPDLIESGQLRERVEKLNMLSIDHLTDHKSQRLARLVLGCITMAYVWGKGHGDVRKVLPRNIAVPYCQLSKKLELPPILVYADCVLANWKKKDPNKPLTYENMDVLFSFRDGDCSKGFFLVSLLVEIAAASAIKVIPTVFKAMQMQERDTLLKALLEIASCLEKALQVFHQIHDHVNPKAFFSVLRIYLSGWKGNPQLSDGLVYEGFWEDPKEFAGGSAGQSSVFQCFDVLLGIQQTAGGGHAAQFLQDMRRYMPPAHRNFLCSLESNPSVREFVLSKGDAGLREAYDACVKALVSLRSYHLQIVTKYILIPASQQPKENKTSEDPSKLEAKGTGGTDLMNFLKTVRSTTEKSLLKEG
T1 sequence (P14902 whole entry): as above
T2 sequence (P48775 whole entry): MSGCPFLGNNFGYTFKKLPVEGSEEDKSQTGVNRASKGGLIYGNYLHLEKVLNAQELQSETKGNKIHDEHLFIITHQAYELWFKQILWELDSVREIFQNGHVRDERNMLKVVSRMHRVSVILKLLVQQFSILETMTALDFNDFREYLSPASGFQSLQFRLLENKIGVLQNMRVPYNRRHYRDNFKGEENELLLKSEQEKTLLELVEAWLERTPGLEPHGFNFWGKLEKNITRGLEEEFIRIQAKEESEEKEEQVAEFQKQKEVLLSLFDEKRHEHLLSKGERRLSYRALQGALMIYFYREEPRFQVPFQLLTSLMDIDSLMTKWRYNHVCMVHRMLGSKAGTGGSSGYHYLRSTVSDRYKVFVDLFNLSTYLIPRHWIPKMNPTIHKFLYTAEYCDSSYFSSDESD
T4 sequence (P48775 whole entry): as above

| SMILES | IC50 [1] [µM] | IC50 ([2]; 24 hours incubation) [µM] | IC50 ([3]; 24 hours incubation) [µM] | IC50 [4] [µM] | IC50 ([2]; 24 hours) [µM] | IC50 ([3]; 24 hours) [µM] |
| --- | --- | --- | --- | --- | --- | --- |
| OC(c1cccc2cncn12)C1CCCCC1 (stereo not drawn) [Compound P-0060, cyclohexyl(imidazo[1,5-a]pyridin-5-yl)methanol] | 0.0001 to 10 | > 10 | 0.0001 to 10 | 0.0001 to 10 | – | – |
| OC(c1cccnc1)c1cc(Cl)cc2cn[nH]c12 (stereo not drawn) [Compound P-0001, (5-chloro-1H-indazol-7-yl)(pyridin-3-yl)methanol] | 0.0001 to 10 | > 10 | > 10 | 0.0001 to 10 | – | – |
| O=C(Cc1ccc(Cl)nc1)N1CCC(C(F)(F)C(O)c2cc(Cl)cc3cn[nH]c23)CC1 (stereo not drawn) [Compound P-0495, 1-(4-(2-(5-chloro-1H-indazol-7-yl)-1,1-difluoro-2-hydroxyethyl)piperidin-1-y1)-2-(6-chloropyridin-3-yl)ethan-1-one] | 0.0001 to 10 | – | – | 0.0001 to 10 | 0.0001 to 10 | 0.0001 to 10 |
| CC(C)(C1CCN(C(=O)C2C(C)(C)C2(C)C)CC1)C(O)c1cc(Cl)cc2cn[nH]c12 (stereo not drawn) [Compound P-0474, (4-(1-(5-chloro-1H-indazol-7-yl)-1-hydroxy-2-methylpropan-2-yl)piperidin-1-yl)(2,2,3,3-tetramethylcyclopropyl) methanone] | 0.0001 to 10 | – | – | 0.0001 to 10 | 0.0001 to 10 | 0.0001 to 10 |
| CC1(C(O)c2c(Cl)c(Cl)cc3cn[nH]c23)CCCCC1 (stereo not drawn) [Compound P-0287, (5,6-dichloro-1H-indazol-7-yl)(1-methylcyclohexyl)methanol] | 0.0001 to 10 | > 10 | 0.0001 to 10 | 0.0001 to 10 | – | – |
| O=S1(=O)CCC(O)(c2cc(Cl)cc3cn[nH]c23)CC1 [Compound P-0047, 4-(5-chloro-1H-indazol-7-yl)-4-hydroxytetrahydro-2H-thiopyran 1,1-dioxide] | 0.0001 to 10 | 0.0001 to 10 | > 10 | 0.0001 to 10 | – | – |
| OC1(c2cc(Cl)cc3[nH]ncc23)CC2(CC2)C1 [Compound P-0352, 5-(6-chloro-1H-indazol-4-yl)spiro[2.3] hexan-5-ol] | 10 to 100 | 0.0001 to 10 | > 10 | 0.0001 to 10 | – | – |
| OC(c1c(F)c(Cl)cc2cn[nH]c12)C12CCC(CC1)CC2 (racemic) [Compound P-0294, bicyclo[2.2.2]octan-1-yl(5-chloro-6-fluoro-1H-indazol-7-yl)methanol] | 0.0001 to 10 | 0.0001 to 10 | 0.0001 to 10 | 0.0001 to 10 | – | – |
| CC(C)(C(O)c1cc(Cl)cc2cn[nH]c12)[C@H]1C[C@H]2CC[C@@H](C1)N2S(N)(=O)=O (stereo partly drawn) [Compound P-0347, (1R,3r,5S)-3-(1-(5-chloro-1H-indazol-7-yl)-1-hydroxy-2-methylpropan-2-yl)-8-azabicyclo[3.2.1] octane-8-sulfonamide] | 0.0001 to 10 | 0.0001 to 10 | 0.0001 to 10 | 0.0001 to 10 | – | – |
| CC(C)(C1CCN(S(=O)(=O)c2ccccc2)CC1)C(O)c1cc(Cl)cc2cn[nH]c12 (stereo not drawn) [Compound P-0309, 1-(5-chloro-1H-indazol-7-yl)-2-methyl-2-(1-(phenylsulfonyl)piperidin-4-yl)propan-1-ol] | 0.0001 to 10 | 0.0001 to 10 | 0.0001 to 10 | 0.0001 to 10 | – | – |
| CC(C)(C1CCN(C(=O)c2ccccn2)CC1)C(O)c1cc(Cl)cc2cn[nH]c12 (stereo not drawn) [Compound P-0365, (4-(1-(5-chloro-1H-indazol-7-yl)-1-hydroxy-2-methylpropan-2-yl)piperidin-1-yl)(pyridin-2-yl)methanone] | 0.0001 to 10 | 0.0001 to 10 | 0.0001 to 10 | 0.0001 to 10 | – | – |
| CCC(C)(CC)C(O)c1cc(Cl)cc2cn[nH]c12 (stereo not drawn) [Compound P-0255, 1-(5-chloro-1H-indazol-7-yl)-2-ethyl-2-methylbutan-1-ol] | 0.0001 to 10 | 0.0001 to 10 | 0.0001 to 10 | 0.0001 to 10 | – | – |
| CC(=O)N1CCC(C(F)(F)C(O)c2c3c(cc4cn[nH]c24)CC3)CC1 (stereo not drawn) [Compound P-0129, 1-(4-(2-(5,6-dihydro-1H-cyclobuta[f]indazol-7-yl)-1,1-difluoro-2-hydroxyethyl)piperidin-1-yl)ethan-l-one] | 0.0001 to 10 | 0.0001 to 10 | 0.0001 to 10 | 0.0001 to 10 | – | – |
| OC(c1cc(Cl)cc2cn[nH]c12)C1(C2CCCCC2)CC1 (stereo not drawn) [Compound P-0187, (5-chloro-1H-indazol-7-yl)(1-cyclohexylcyclopropyl)methanol] | 0.0001 to 10 | 0.0001 to 10 | 0.0001 to 10 | 0.0001 to 10 | – | – |
| CC(C)(C)OC(=O)N1CCC(C(F)(F)[C@H](O)c2c3c(cc4cn[nH]c24)CC3)CC1 [Compound P-0527, tert-butyl (R)-4-(2-(5,6-dihydro-1H-cyclobuta[f]indazol-7-yl)-1,1-difluoro-2-hydroxyethyl) piperidine-1-carboxylate] | 0.0001 to 10 | – | – | 10 to 100 | 0.0001 to 10 | 0.0001 to 10 |
| OC1(c2cc(Cl)cc3cn[nH]c23)CC2(CCCCC2)C1 [Compound P-0051, 2-(5-chloro-1H-indazol-7-yl)spiro[3.5]nonan-2-ol] | 0.0001 to 10 | 0.0001 to 10 | 0.0001 to 10 | 0.0001 to 10 | – | – |
| O=C(CC1CCOCC1)N1CCC(C(F)(F)C(O)c2cc(Cl)cc3cn[nH]c23)CC1 (stereo not drawn) [Compound P-0480, 1-(4-(2-(5-chloro-1H-indazol-7-yl)-1,1-difluoro-2-hydroxyethyl)piperidin-1-yl)-2-(tetrahydro-2H-pyran-4-yl)ethan-1-one] | 0.0001 to 10 | – | – | 0.0001 to 10 | 0.0001 to 10 | 0.0001 to 10 |
| CC1(C(O)c2cc(Cl)cc3cn[nH]c23)CCCC1 (stereo not drawn) [Compound P-0021, (5-chloro-1H-indazol-7-yl)(1-methylcyclopentyl)methanol] | 0.0001 to 10 | 0.0001 to 10 | 0.0001 to 10 | 0.0001 to 10 | – | – |
| OC(c1c(F)c(Cl)c(F)c2cn[nH]c12)C1(C2CCCCC2)CC1 (stereo not drawn) [Compound P-0247, (5-chloro-4,6-difluoro-1H-indazol-7-yl)(1-cyclohexylcyclopropyl)methanol] | 0.0001 to 10 | 0.0001 to 10 | 0.0001 to 10 | 0.0001 to 10 | – | – |
| CC(C)(C1CCN(C(=O)NCS(C)(=O)=O)CC1)C(O)c1cc(Cl)cc2cn[nH]c12 (stereo not drawn) [Compound P-0471, 4-(1-(5-chloro-1H-indazol-7-yl)-1-hydroxy-2-methylpropan-2-yl)-N-((methylsulfonyl)methyl)piperidine-1-carboxamide] | 0.0001 to 10 | – | – | 0.0001 to 10 | 0.0001 to 10 | 0.0001 to 10 |
| CC(C)(C1CCN(C(=O)Nc2cccnc2)CC1)C(O)c1cc(Cl)cc2cn[nH]c12 (stereo not drawn) [Compound P-0358, 4-(1-(5-chloro-1H-indazol-7-yl)-1-hydroxy-2-methylpropan-2-yl)-N-(pyridin-3-yl)piperidine-1-carboxamide] | 0.0001 to 10 | 0.0001 to 10 | 0.0001 to 10 | 0.0001 to 10 | – | – |
| Cc1ccc2cn[nH]c2c1C(O)C(C)(C)C1CCOCC1 (stereo not drawn) [Compound P-0234, 2-methyl-1-(6-methyl-1H-indazol-7-yl)-2-(tetrahydro-2H-pyran-4-yl)propan-1-ol] | 0.0001 to 10 | 0.0001 to 10 | 0.0001 to 10 | 0.0001 to 10 | – | – |
| CC(C)C(=O)N1CCC(C(C)(C)[C@H](O)c2cc(Cl)cc3cn[nH]c23)CC1 [Compound P-0544, (S)-1-(4-(1-(5-chloro-1H-indazol-7-yl)-1-hydroxy-2-methylpropan-2-yl)piperidin-1-yl)-2-methylpropan-1-one] | 0.0001 to 10 | – | – | 0.0001 to 10 | 0.0001 to 10 | 0.0001 to 10 |
| CC1(C(O)c2c3c(cc4cn[nH]c24)CC3)CCCCC1 (stereo not drawn) [Compound P-0054, (5,6-dihydro-1H-cyclobuta[f]indazol-7-yl)(1-methylcyclohexyl)methanol] | 0.0001 to 10 | > 10 | 0.0001 to 10 | 0.0001 to 10 | – | – |
| O=C(C1CCC1)N1CCC(C(F)(F)C(O)c2cc(Cl)cc3cn[nH]c23)CC1 (stereo not drawn) [Compound P-0349, (4-(2-(5-chloro-1H-indazol-7-yl)-1,1-difluoro-2-hydroxyethyl)piperidin-1-yl)(cyclobutyl) methanone] | 0.0001 to 10 | 0.0001 to 10 | 0.0001 to 10 | 0.0001 to 10 | – | – |
| CC(C)(C1CCN(C(=O)NC(=O)c2ccccc2)CC1)[C@H](O)c1cc(Cl)cc2cn[nH]c12 [Compound P-0555, (S)-N-benzoyl-4-(1-(5-chloro-1H-indazol-7-yl)-1-hydroxy-2-methylpropan-2-yl)piperidine-1-carboxamide] | 0.0001 to 10 | – | – | 0.0001 to 10 | 0.0001 to 10 | 0.0001 to 10 |
| CCC(=O)N1CCC(C(C)(C)C(O)c2cc(Cl)cc3cn[nH]c23)CC1 (stereo not drawn) [Compound P-0311, 1-(4-(1-(5-chloro-1H-indazol-7-yl)-1-hydroxy-2-methylpropan-2-yl)piperidin-1-yl)propan-1-one] | 0.0001 to 10 | 0.0001 to 10 | 0.0001 to 10 | 0.0001 to 10 | – | – |
